Structures can show the parent of a compound that is named as a salt. Where two headings read alike, the source gives them in different places. Marks after values point to notes of the source that are not given here.
Columns and labels:
[1] = μFLUX dissolution/flux test, FaSSIF or FeSSIF donor, acceptor sink buffer receiver; assay type: in vitro ADME; conditions: for Flux Fa (±SD; n=3) / Flux Fe (±SD; n=3): unformulated powder, initial flux excluding lag time, 37 °C; for Flux Ratios (Fed/Fasted): FeSSIF/FaSSIF; for Food effect indicated by flux ratio: prediction from FeSSIF/FaSSIF flux ratio
Procedure: Dissolution/flux tests were performed using a μFLUX apparatus (Pion Inc., Billerica, MA, USA) with 4 side-by-side donor-receiver chambers separated by a lipophilic barrier. Prior to the assay, the artificial GIT-mimicking membrane was prepared by impregnating a PVDF filter support material (polyvinylidenfluoride, 1.54 cm^2 open area, 0.45 μm pore size, 120 μm thickness, 70 % nominal porosity) with 25 μL of 20 % lecithin in dodecane lipid solution (GIT Lipid, Pion Inc., Billerica, MA, USA). The donor chambers were then filled with 20 ml of biorelevant media (FaSSIF or FeSSIF) while the receiver compartments were filled with 20 ml of acceptor sink buffer (ASB, Pion Inc., Billerica, MA, USA). The ASB is a HEPES (4-(2-hydroxyethyl)-1-piperazineethanesulfonic acid) based pH 7.4 buffer containing chemical scavengers (surfactants micelles) that allow to maintain sink conditions during the experiments. The composition of the membrane and the receiver solution are identical to the Double-Sink PAMPA model, a non-cell-based method predicting of passive transcellular intestinal absorption. The temperature in both chambers was maintained at 37 °C and the media were stirred at 100 rpm.
Model compounds were added at the start of the experiment in the donor chambers as unformulated powder at a solid load equivalent to the lowest marketed dose normalized to 250 mL stomach volume. In some cases, to counter for experimental limitation due to low signal detection or high turbidity, a higher or lower dose was selected.
Standards for each model compound were prepared by sequential addition of a stock solution of pure API pre-dissolved in organic solvents (either methanol or DMSO) to the corresponding medium. The area under the 2nd derivative spectra curves was used to calculate the concentrations. The wavelength range was selected individually for each compound in the way to avoid sensitivity issues. […] The drug concentration in the donor and receiver chambers was calculated from the UV absorbance of the samples using the corresponding standard curve. For samples with low permeability, an additional μFLUX donor-receiver pair containing described reagents except API was included in parallels and used as a corrective “blank” at the corresponding time point to ensure that the UV signal of API could be differentiated from the spectral noise of the biorelevant media. Concentration-time profiles were monitored over at least 180 min, in triplicate for each drug unless otherwise mentioned.
The flux (J) across the membrane representing the amount (m) of material crossing one unit area (A) of the membrane per unit time (t), was calculated from the concentration-time profiles in the receiver compartments:
A is the area of the membrane (1.54 cm^2), V is the volume of the receiver compartment (20 mL) and dc/dt (μg mL^-1 min^-1) is the slope of the concentration time profile of the drug in the receiver compartment.
The flux values were calculated by fitting the concentration-time profile in the receivers to a straight line to determine the slope and then normalizing the slope to the volume and surface area of the membrane following equation (1). Time intervals to calculate the flux were selected based on the apparent linearity of the concentration-time profile in the receivers, capturing the initial flux process and excluding the lag time unless otherwise is stated.

[2] = cited from earlier work; for FE (food effect observed in clinic): assigned from AUC and Cmax ratios of published clinical data; for Observed AUC Ratio (Fed/Fasted) / Observed Cmax Ratio (Fed/Fasted): ratio of geometric means fed/fasted, published clinical data
[3] = Solubility in biorelevant media (FaSSIF / FeSSIF); assay type: physicochemical; conditions: for Solubility ratio (Fed/Fasted): FeSSIF/FaSSIF, calculated from Table 2 solubilities; for Food effect indicated by solubility ratio: prediction from FeSSIF/FaSSIF solubility ratio
Procedure: Solubility measurements were performed by adding an excess amount of drug into FaSSIF or FeSSIF media in a glass vial. […] After equilibration, samples were centrifuged/filtered using NANOSEP with 0.2 μm Bio-inert centrifugal devices (PAL Corporation). The filtrate was immediately diluted accordingly into acetonitrile/water 50/50 and analyzed by HPLC.
Model drugs categorized as BCS I - IV classes were selected. The drugs included mono- and diprotic acids and bases as well as non-ionizable compounds. […] The physicochemical properties of the model compounds, pKa, log P [18, 19] and solubility in biorelevant media [[20-26]] were collected from the literature and are depicted in Table 2.

[4] = cited from earlier work; for Solubility FaSSIF (pH 6.5) / Solubility FeSSIF (pH 5.0): some values determined in the authors' lab (not marked)
[5] = cited from earlier work; for pKa: experimental, higher pKa where two are given; for Type: ionization type
[6] = experimental; cited from earlier work
[7] = μFLUX dissolution/flux test, FaSSIF or FeSSIF donor, acceptor sink buffer receiver; assay type: in vitro ADME; conditions: 0.4 mg/mL

Flux Fa (±SD; n=3) ([1]; FaSSIF donor) | Flux Fe (±SD; n=3) ([1]; FeSSIF donor) | Flux Ratios (Fed/Fasted) [1] | Food effect indicated by flux ratio [1] | Solubility ratio (Fed/Fasted) [3] | Food effect indicated by solubility ratio [3] | Structure (SMILES) | FE (food effect observed in clinic) [2] | Solubility FaSSIF (pH 6.5) [4] | Solubility FeSSIF (pH 5.0) [4] | Observed AUC Ratio (Fed/Fasted) [2] | Observed Cmax Ratio (Fed/Fasted) [2] | further results
1.751 ± 0.540 | 2.168 ± 0.323 | 1.24 | no food effect | 3.85 | positive food effect | COC(=O)[C@H](c1ccccc1Cl)N1CCc2sccc2C1 [Clopidogrel bisulfate, clopidogrel bisulfate] | none | 130 μg/mL | 500 μg/mL | 1.02 | 0.79 | FE (food effect observed in clinic) ([2]; listed as clopidogrel bisulfate): no food effect
0.020 ± 0 | 0.020 ± 0 | – | – | – | – | NNC(=O)c1ccncc1 [Isoniazid, isoniazid] | negative food effect | > 60,000 μg/mL | > 60,000 μg/mL | 0.88 | 0.49 | Solubility in FaSSIF ([4]; FaSSIF): > 60 mg/mL; Solubility in FeSSIF ([4]; FeSSIF): > 60 mg/mL
0.018 ± 0.003 | 0.208 ± 0.036 | – | – | – | – | NS(=O)(=O)c1cc(C(=O)O)c(NCc2ccco2)cc1Cl [Furosemide, furosemide] | negative | – | – | – | – | fraction of drug deprotonated ([5]; pH 5.0, species distribution curve): ~ 97%; FE (food effect observed in clinic) ([2]; listed as furosemide): negative food effect

Further lines, the compound ahead of its results:

Structure (SMILES) | Flux Fa (±SD; n=3) ([1]; FaSSIF donor) | Flux Fe (±SD; n=3) ([1]; FeSSIF donor) | Flux Ratios (Fed/Fasted) [1] | Food effect indicated by flux ratio [1] | Solubility ratio (Fed/Fasted) [3] | Food effect indicated by solubility ratio [3] | FE (food effect observed in clinic) [2] | Solubility FaSSIF (pH 6.5) [4] | Solubility FeSSIF (pH 5.0) [4] | Observed AUC Ratio (Fed/Fasted) [2] | Observed Cmax Ratio (Fed/Fasted) [2] | further results
CCCCc1oc2ccccc2c1C(=O)c1cc(I)c(OCCN(CC)CC)c(I)c1 [Amiodarone, Amiodarone hydrochloride] | – | – | – | – | – | – | positive food effect | – | – | – | – | Flux Fa (±SD; n=3), early ([1]; FaSSIF donor, early flux, first 2 hours excluding lag time): 0.017± 0.003; Flux Fa (±SD; n=3), late ([1]; FaSSIF donor, late flux, 2.5-9 hours interval): 0.579 ± 0.095; Flux Fe (±SD; n=3), early ([1]; FeSSIF donor, early flux, first 2 hours excluding lag time): 0.073 ± 0.001; Flux Fe (±SD; n=3), late ([1]; FeSSIF donor, late flux, 2.5-9 hours interval): 1.277± 0.109
Cc1ccc(-c2cc(C(F)(F)F)nn2-c2ccc(S(N)(=O)=O)cc2)cc1 [Celecoxib, celecoxib] | 0.186 ± 0.021 | 0.632 ± 0.077 | 3.4 | positive food effect | 2.24 | positive food effect | positive | – | 103.3 μg/mL | 1.19 | 1.29 | pKa [5]: 9.38 ± 0.08^a; FE (food effect observed in clinic) ([2]; listed as celecoxib): positive food effect
CNCCC(Oc1ccc(C(F)(F)F)cc1)c1ccccc1 (centres unmarked) [Fluoxetine HCl, fluoxetine hydrochloride] | – | – | – | – | – | – | none | – | – | – | – | FE (food effect observed in clinic) ([2]; listed as FXT): not influenced by presence or absence of food
Cc1cn([C@H]2C[C@H](N=[N+]=[N-])[C@@H](CO)O2)c(=O)[nH]c1=O [Zidovudine, zidovudine] | 0.037 ± 0.007 | 0.034 ± 0.002 | – | – | – | – | negative food effect | – | – | – | – | pKa [5]: 9.40 ± 0.01^a; log P [6]: 0.13
COC1=CC(=O)C[C@@H](C)[C@]12Oc1c(Cl)c(OC)cc(OC)c1C2=O [Griseofulvin] | 0.205 ± 0.011 | 0.218 ± 0.009 | – | – | – | – | – | 23.4 μg/mL | 29.2 μg/mL | – | – | Type [5]: N; log P [6]: 2.2
C#C[C@]1(O)CC[C@H]2[C@@H]3CCC4=Cc5oncc5C[C@]4(C)[C@H]3CC[C@@]21C [Danazol, danazol] | – | – | – | – | – | – | – | – | – | – | – | Type [5]: N
CCc1nn(CCCN2CCN(c3cccc(Cl)c3)CC2)c(=O)n1CCOc1ccccc1 [Nefazodone HCl, nefazodone hydrochloride] | 0.521 ± 0.179 | 1.077 ± 0.084 | 2.07 | negative food effect | 1.52 | positive food effect | negative food effect | 252 μg/mL | 383 μg/mL | 0.78 | 0.93 | Flux Fa (±SD; n=3), suspension ([7]; FaSSIF donor, sample introduced as slurry of DS in the medium): 2.610 ± 0.618; Flux Fe (±SD; n=3), suspension ([7]; FeSSIF donor, sample introduced as slurry of DS in the medium): 1.923 ± 0.547; Flux Ratios (Fed/Fasted), suspension ([7]; FeSSIF/FaSSIF, sample introduced as slurry): 0.74
